Measurements: PubChem BioAssay (NCI)
Where “and” joins values, the source holds several entries; their conditions need not be identical. Identical values can stand only once.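 All cell lines were grown in 96-well plates and treated with compound for 48 hours. GI50 marks 50% less growth. The concentration for full growth arrest is given as TGI.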

Tests used:
Assay in all cases: NCI tumour cell line growth inhibition, 48 h
HCT-15 colon = tested on: HCT-15 colon
HOP-62 NSCLC = tested on: HOP-62 NSCLC
OVCAR-3 ovarian = tested on: OVCAR-3 ovarian
RXF 393 renal = tested on: RXF 393 renal
HT29 colon = tested on: HT29 colon
SN12C renal = tested on: SN12C renal
CAKI-1 renal = tested on: CAKI-1 renal
SNB-19 CNS = tested on: SNB-19 CNS
CCRF-CEM leukemia = tested on: CCRF-CEM leukemia
MDA-MB-435 = tested on: MDA-MB-435

| SMILES | TGI (HCT-15 colon) | TGI (HOP-62 NSCLC) | TGI (OVCAR-3 ovarian) | TGI (RXF 393 renal) | TGI (HT29 colon) | TGI (SN12C renal) | TGI (CAKI-1 renal) | TGI (SNB-19 CNS) | GI50 (CCRF-CEM leukemia) | TGI (CCRF-CEM leukemia) | GI50 (HCT-15 colon) | GI50 (HOP-62 NSCLC) | GI50 (MDA-MB-435) | TGI (MDA-MB-435) | GI50 (OVCAR-3 ovarian) | GI50 (RXF 393 renal) | GI50 (HT29 colon) | GI50 (SN12C renal) | GI50 (CAKI-1 renal) | GI50 (SNB-19 CNS) |
| --- | --- | --- | --- | --- | --- | --- | --- | --- | --- | --- | --- | --- | --- | --- | --- | --- | --- | --- | --- | --- |
| CC(C)(CN1C(=O)C(Cl)=C(Cl)C1=O)CN1C(=O)C(Cl)=C(Cl)C1=O | 48.8 µM | 45.6 µM | 23.2 µM | 14.4 µM | 42 µM | 29.4 µM | 15.9 µM | 55 µM | – | – | – | – | – | – | – | – | – | – | – | – |
| COc1ccc2nc3cc(Cl)ccc3c(NCCCNCCO)c2c1 | 3.15 µM | 2.14 µM | 2.86 µM | 2.22 µM | 1.41 µM | 2.48 µM | 3.55 µM | 3.79 µM | 0.476 µM | 2.28 µM | 0.577 µM | 0.393 µM | 0.522 µM | 1.88 µM | 0.588 µM | 0.58 µM | 0.292 µM | 0.371 µM | 0.816 µM | 0.5 µM |
| COc1cnc2c(c1)C(=O)c1c-2n(CCCNC2=NCCS2)c(=O)c2cc(F)ccc12 | 4.53 µM | 2.6 µM | 2.27 µM | – | 2.02 µM | 12.3 µM | – | 2.61 µM | 0.0402 µM | 5.49 µM | 1.21 µM | 0.0595 µM | 0.75 µM | 2.37 µM | 0.567 µM | – | 0.0753 µM | 0.238 µM | – | 0.15 µM |
| COc1cc(C2c3cc4c(cc3[C@@H](NCCN(C)C)C3COC(=O)[C@H]23)OCO4)cc(OC)c1O (some centres undefined) | 2.63 µM | 0.191 µM and 0.372 µM | 2.81 µM and 3.31 µM | 2.08 µM and 4.37 µM | 5 µM | 0.406 µM and 0.982 µM | 3.46 µM and 4.21 µM | 5.18 µM and 9.62 µM | 0.0136 µM and 0.0277 µM | 0.417 µM and 0.352 µM | 1.02 µM | 0.0191 µM and 0.0491 µM | – | – | – | 0.301 µM and 1.11 µM | 1.36 µM | 0.0256 µM and 0.084 µM | 0.306 µM and 0.652 µM | – |
| CCCCC1=CSC(c2ccccc2)=C(c2ccccc2)S1 | > 100 µM | – | > 100 µM | – | > 100 µM | > 100 µM | – | > 100 µM | – | > 100 µM | – | – | – | – | – | – | – | – | – | – |
| COc1cc([N+](=O)[O-])c(OC)cc1-c1nc2sc(C)c(C)n2c1/C(N)=N/C(=N)N | > 100 µM | > 100 µM | – | > 100 µM | > 100 µM | – | > 100 µM | > 100 µM | 6.01 µM | > 100 µM | > 100 µM | > 100 µM | > 100 µM | > 100 µM | – | > 100 µM | > 100 µM | – | > 100 µM | 2.33 µM |
| Cc1ccc(NC(=O)CCc2nc(=S)[nH][nH]2)cc1 | > 100 µM | > 100 µM | > 100 µM | – | > 100 µM | > 100 µM | > 100 µM | > 100 µM | – | > 100 µM | – | – | – | – | – | – | – | – | – | – |
| CSC1=NC(=Nc2c(C)cccc2C)C2(CCC(C(C)(C)C)CC2)N1c1ccc(Cl)cc1 (centres undefined) | > 100 µM | > 100 µM | > 100 µM | > 100 µM | > 100 µM | > 100 µM | > 100 µM | > 100 µM | – | – | 7.42 µM | > 100 µM | 30.9 µM | > 100 µM | 54.1 µM | 52.4 µM | 38 µM | 40.8 µM | 6.59 µM | > 100 µM |
| CN=c1ss/c(=N\C(=S)N(C)C)n1C | > 100 µM | > 100 µM | – | > 100 µM | > 100 µM | > 100 µM | > 100 µM | > 100 µM | – | > 100 µM | – | – | – | – | – | – | – | – | – | – |
| COc1ccc(-c2cc(=O)c3c(O)c(OC)c(OC)c(OC)c3o2)cc1OC | > 100 µM | 82.9 µM | > 100 µM | – | > 100 µM | > 100 µM | > 100 µM | > 100 µM | – | > 100 µM | – | – | – | – | – | – | – | – | – | – |
| CCN1CCN(c2nc(C)cc(N(CCCNc3ccnc4cc(Cl)ccc34)Cc3ccc4c(c3)OCO4)n2)CC1 | 3.16 µM | 4.09 µM | 3.96 µM | 3.12 µM | 2.64 µM | 5.55 µM | – | 11.3 µM | 1.81 µM | 7.14 µM | 1.07 µM | 1.46 µM | 1.56 µM | 3.06 µM | 1.61 µM | 1.54 µM | 1.07 µM | 2.03 µM | – | 2.98 µM |
| COc1cc[c]([Sn]([c]2ccc(OC)cc2)([c]2ccc(OC)cc2)[c]2ccc(OC)cc2)cc1 | > 100 µM | > 100 µM | 33.7 µM | – | > 100 µM | > 100 µM | 69.2 µM | > 100 µM | 20.7 µM | 69.8 µM | > 100 µM | 81.8 µM | – | – | 12.5 µM | – | 20.3 µM | > 100 µM | 10.9 µM | 28.5 µM |
| Nc1nnc2c(-c3ccccc3)[nH]nc2n1 | > 100 µM | – | > 100 µM | > 100 µM | > 100 µM | > 100 µM | > 100 µM | > 100 µM | – | > 100 µM | – | – | – | – | – | – | – | – | – | – |
| COC1C2C[C@@H](O)CCC2C(C(=O)OCCl)C[C@H]1O (some centres undefined) | > 100 µM | > 100 µM | > 100 µM | > 100 µM | – | > 100 µM | > 100 µM | > 100 µM | – | > 100 µM | – | – | – | – | – | – | – | – | – | – |
| NC(=O)c1ccc2c(c1)-c1nc-2nc2[n-]c(nc3nc(nc4[n-]c(n1)c1ccc(C(N)=O)cc41)-c1ccc(C(N)=O)cc1-3)c1ccc(C(N)=O)cc21.[Co+2] | > 50 µM | > 50 µM | > 50 µM | – | > 50 µM | > 50 µM | > 50 µM | > 50 µM | 14.5 µM | > 50 µM | > 50 µM | > 50 µM | – | – | > 50 µM | – | > 50 µM | > 50 µM | > 50 µM | > 50 µM |
| Nc1ccc2n[se]nc2c1 | > 100 µM | > 100 µM | – | > 100 µM | > 100 µM | > 100 µM | > 100 µM | > 100 µM | – | > 100 µM | – | – | – | – | – | – | – | – | – | – |
| O=S1(=O)N2CN3CN(C2)CN1C3 | 53.4 µM and 67.2 µM | 624 µM | – | – | 90.6 µM | 158 µM | 571 µM | 856 µM | – | > 31.6 µM and 110 µM | – | – | – | – | – | – | – | – | – | – |
| CN(C)CCNC(=O)c1cccc2c1nc(-c1ccc(F)cc1)c1ccccc12 | 13.9 µM | 12.9 µM | 18.7 µM | 12 µM | 15.1 µM | 16 µM | 16.8 µM | 20.2 µM | – | 11.9 µM | – | – | – | – | – | – | – | – | – | – |
